Data reported in patent publication US11505539B2, “Deuterated compounds as inhibitors of the BCL6 BTB domain protein-protein interaction and/or as BCL6 degraders” (Ontario Institute for Cancer Research (OICR), priority 2017, dated 2022).

How the values were obtained:
[1] = Liver microsomal metabolic stability, human; assay type: in vitro ADME; conditions: % remaining after 60 min, 1 μM compound, 0.5 mg/mL protein
Description: (§1) (f) Microsomal Stability Assays
(§2) Liver Microsomal Metabolic Stability
(§3) Working stocks were initially diluted to a concentration of 40.0 μM in 0.1 M potassium phosphate buffer (pH 7.4) before addition to the reaction vials. CD-1 mouse (male) or pooled human liver microsomes (Corning Gentest) were utilized at a final concentration of 0.5 mg/mL (protein). Duplicate wells were used for each time point (0 and 60 minutes). Reactions were carried out at 37° C. in an orbital shaker at 175 rpm, and the final DMSO concentration was kept constant at 0.1%. The final volume for each reaction was 100 μL, which includes the addition of an NADPH-Regeneration Solution (NRS) mix. This NRS mix is comprised of glucose 6-phosphate dehydrogenase, NADP+, MgCl2, and glucose 6-phosphate. Upon completion of the 60 minute time point, reactions were terminated by the addition of 2-volumes (200 μL) of ice-cold, acetonitrile containing 0.5% formic acid and internal standard. Samples were then centrifuged at 4,000 rpm for 10 minutes to remove debris and precipitated protein. Approximately 150 μL of supernatant was subsequently transferred to a new 96 well microplate for LC/MS analysis:
(§4) Narrow-window mass extraction LC-MS analysis was performed for all samples in this study using a Waters Xevo quadrupole time-of-flight (QTof) mass spectrometer to determine relative peak areas of test compounds. The percent remaining values are calculated using the following equations: % remaining=(A)/A0×100
(§5) A is area response after incubation
(§6) A0 is area response at initial time point

[2] = Liver microsomal metabolic stability, mouse; assay type: in vitro ADME; conditions: % remaining after 60 min, 1 μM compound, 0.5 mg/mL protein
Description: as §1, §2, §3, §4, §5, §6

[3] = Microsomal intrinsic clearance assay; assay type: in vitro ADME; conditions: pH 7.4, liver microsomes 0.5 mg/mL, species (mouse or human) not given; for microsomal CLint at 1 μM: read-out: Clint (μL/min/mg protein)
Description: CD-1 mouse (male) or pooled human liver microsomes (Corning Gentest) were utilized at a final concentration of 0.5 mg/mL (protein). 12.5 μL of each drug solution were placed into a well of 96 well plate. Reactions were initiated by the addition of activated microsome solutions (500 μL) to drug solutions. Reactions were carried out at 37° C. in an orbital shaker at 175 rpm, and the final DMSO concentration was kept constant at 0.1%. Test compounds were incubated at a final concentration of 1 μM. 50 μL of aliquots of reaction mixtures were quenched by mixing with two parts of stop solution (internal standard containing 0.5% formic acid in acetonitrile) at appropriate time-points and mixed well. Then, solutions were centrifuged at 4000 rpm for 10 min. Supernatants were transferred to a new 96-well plate and analyzed by a Waters Q-TOF mass spectrometer coupled with an UPLC System. Recovery analysis was performed using relative peak areas and narrow window mass extraction.
The ln(% remaining) is plotted against time and the gradient of the line determined. Elimination Constant (k)=−slope Half-life (t½)(min)=ln 2/k=0.693/k V (μL/mg)=volume of incubation (μL)/protein in the incubation (mg) Intrinsic Clearance (CLint)(μL/min/mg protein)=V·0.693/t½=V·k

[4] = as reported; limits use in animal studies; cited from earlier work
[5] = biological target: T1, BTB domain of BCL6 / SMRT BBD peptide (Homo sapiens, UniProt P41182); test: BCL6-BTB - SMRT peptide inhibition fluorescence polarization (FP) screen; assay type: binding; conditions: 1.25 uM BCL6-BTB, 20 nM Bodipy-TMR SMRT peptide probe; lower limit of assay 1 uM
T1 construct: Thioredoxin-His6-STag-TEV-biotinylation-thrombin-BCL6 amino acids 1-129
Description: (a) BCL6-BTB—SMRT Peptide Inhibition Fluorescence Polarization (FP) Screen
Compounds were dissolved in 100% DMSO at 10 mM, assayed fresh, and then stored at −20° C. for repeat studies and future work. The reaction mixture consists of 1.25 uM of the 25 kd BCL6-BTB domain (Thioredoxin-His6-STag-TEV-biotinylation-thrombin-BCL6 amino acids 1-129) plus 20 nM of the peptide probe Ac-GSLVATVKEAGRSIHEIPA (SEQ ID NO: 1) with 16 amino acid peptide from the SMRT BBD (1414-1429) with a Bodipy-TMR fluorescent label on the lysine. […] 20 ul of this assay mixture was added to each well of the 384 well plates with the exception of the control wells that contained no protein (for setting the minimum FP value). Compounds were directly sprayed using an HP D300 Digital Dispenser from 10 mM DMSO stocks onto black 384 well plates (greiner bio-one #781900) in a concentration range from 1 uM to 500 uM (10 points in duplicate). The assay was equilibrated for 1 hour prior to reading the FP values (Ex 540 nm/Em 580 nm) with a Perkin Elmer Envision plate reader. The results were curve fitted and IC50 values were calculated using the BioAssay software from CambridgeSoft.

[6] = biological target: T2, BCL6 BTB domain (Homo sapiens, UniProt P41182); test: Surface plasmon resonance (SPR) assay; assay type: binding; conditions: Biacore T200, single cycle kinetics
T2 construct: BCL6 BTB domain (biotin-thrombin-BCL6 amino acids 1-129; 17 kd); Thioredoxin-His6-STag (N, cleaved yes); made in house
Description: (b) Surface Plasmon Resonance (SPR) Assay
SPR studies were performed using a Biacore™ T200 instrument (GE Health Sciences Inc.). The BCL6 BTB protein used in the FP assay was biotinylated using the site specific biotinylating enzyme BirA, and then cleaved with TEV protease to produce the BCL6 BTB domain (biotin-thrombin-BCL6 amino acids 1-129; 17 kd) that was use in SPR. This protein was stably captured (1000RU) to streptavidin coupled SA chips (BR-1005-31, GE Health Sciences Inc.) according to the manufacture's protocol. Compounds were dissolved in 100% DMSO at 10 mM and 2-fold serial dilutions were done in 100% DMSO. For SPR analysis the serially titrated compounds were diluted 1/20 into buffer (10 mM HEPES pH7.4, 150 mM NaCl, 0.05% Tween-20, 3 mM EDTA) giving a final concentration of 5% DMSO. The Biacore flow rate was set at 100 ul/min. For KD determinations, single cycle kinetic analysis was performed with an on time of 60 seconds, and an off time of 300 seconds. Curve fitting and KD calculations were done with the Biacore T200 Evaluation software (GE Health Sciences Inc).

[7] = test system: SuDHL4-3xBCL6-TK-Luc cells; test: Cell-based BCL6 reporter luciferase assay; conditions: Homo sapiens, SU-DHL-4, 48 h, two days
Description: (c) Cell-Based Luciferase Assay:
A BCL6 reporter construct containing three copies of the consensus BCL6 binding site, the TK promoter, and the firefly luciferase gene was stably expressed in SuDHL4 cells after lentivirus infection and selection with Blasticidin. SuDHL4-3×BCL6-TK-Luc cells were seeded into a Viewplate 384-well assay dish at 15,000 cells/well in 25 ul medium (Alpha-MEM high glucose containing 10% FBS, 25 mM HEPES, […] GlutaMAX, 100 ug/ml Normocin, and […] Gentamycin, Invitrogen). A HP D300 digital dispenser was used to dose cells with DMSO or test compounds across a 10-point range of concentrations (high dose of 10 uM), and cultures were grown in a humidified 5% CO2 incubator at 37° C. After two days, plates were removed from incubator and equilibrated to room temperature. An equal volume of neolite reporter gene assay reagent was added to each well, and samples were processed according to manufacturer's instructions (Perkin Elmer). Luminescent signal was measured using an Envision plate reader equipped with a US-Luminescence detector.

[8] = test system: Karpas422 cells; test: Tumor cell growth inhibition assay; assay type: cell-based; conditions: Homo sapiens, KARPAS-422, 144 h; Karpas422, six days, ATPlite; read-out: GI Karpas EC50
Description: (d) Tumor Cell Growth inhibition Assay:
Karpas422 cells were seeded into a 96-well plate at 2,000 cells/well in 150 ul medium (Alpha-MEM containing 10% FBS, […] Normocin, and […] Gentamycin, Invitrogen). A HP D300 digital dispenser was used to dose cells with DMSO or test compounds across a 10-point range of concentrations (high dose of 5 uM), and cultures were grown in a humidified 5% CO2 incubator at 37° C. After six days, plates were removed from incubator and equilibrated to room temperature. An equal volume of ATPlite assay reagent was added to each well, and samples were processed according to manufacturer's instructions (Perkin Elmer). Luminescent signal was measured using an Envision plate reader equipped with a US-Luminescence detector.

Compound | Human Liver Microsomes (HLM, % @ 1 h) [1] | Mouse Liver Microsomes (MLM, % @ 1 h) [2] | half-life at 1 μM [3] | microsomal CLint at 1 μM [3] | bioavailability [4] | IC50 [5] | Kd [6] | IC50 [7] | EC50 [8]
CNC(=O)COc1cc2cc(Nc3nc(N4C[C@H](C)C[C@H](C)C4)ncc3Cl)ccc2n(C)c1=O [BI-3802, reference compound] | 25% | 13% | 12 min | 112 µL/min/mg | poor bioavailability | – | – | – | –
[2H]C([2H])([2H])NC(=O)C([2H])([2H])Oc1cc2cc(Nc3nc(N4C[C@H](C)C[C@H](C)C4)ncc3Cl)ccc2n(C)c1=O [Example Ia, 2-((6-((5-chloro-2-((3R,5S)-3,5-dimethylpiperidin-1-yl)pyrimidin-4-yl)amino)-1-methyl-2-oxo-1,2-dihydroquinolin-3-yl)oxy)-N-(methyl-d3)acetamide-2,2-d2] | 26% | 8% | 29 min | 48 µL/min/mg | – | ≤ 1000 nM | 4.56 nM | 46.6 nM | 14.1 nM
[2H]C([2H])([2H])NC(=O)C([2H])([2H])Oc1cc2cc(Nc3nc(N4C[C@@H](C)C(F)(F)[C@@H](C)C4)ncc3Cl)ccc2n(C)c1=O [Ib] | 100% | 91% | 82 min | 17 µL/min/mg | – | ≤ 900 nM | 4.53 nM | 7.57 nM | 5.04 nM
